Measured values as given in patent US20080051387A1, “TETRAHYDROPYRIDO[3,4-D]PYRIMIDINES AND RELATED ANALOGUES” (priority 2006, published 2008).

What follows are compounds tested against T1, chimeric human H3 receptor (Homo sapiens, UniProt Q9Y5N1) (assay: Chimeric human H3 receptor screening GTP binding assay (inhibition of histamine-stimulated GTP-gamma35S binding, Example 8)). Settings: 1 h; assay described in Example 8; symbol "!" in column headed Ki; read-out: Ki ("!": percent inhibition of agonist-induced GTP-gammaS binding to H3).
T1 construct: rat Galpha-i2 (Gnai2, rat); made in house; host or cells: Sf9 insect cells (baculovirus); P2 membranes
Assay type: biochemical
In short: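 Sf9 membranes co-expressing chimeric human H3 receptor and heterotrimeric G-protein (35 μg protein) incubated 60 min at room temperature with 4 μM compound, 1 μM histamine and 125 pM GTP-gamma35S in pH 7.4 buffer with 10 μM GDP. Filter-bound radioactivity, nonspecific (10 μM GTP-gammaS) subtracted, reported as % inhibition of histamine signal.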

T1 sequence (Q9Y5N1 with tags, fused parts or gaps): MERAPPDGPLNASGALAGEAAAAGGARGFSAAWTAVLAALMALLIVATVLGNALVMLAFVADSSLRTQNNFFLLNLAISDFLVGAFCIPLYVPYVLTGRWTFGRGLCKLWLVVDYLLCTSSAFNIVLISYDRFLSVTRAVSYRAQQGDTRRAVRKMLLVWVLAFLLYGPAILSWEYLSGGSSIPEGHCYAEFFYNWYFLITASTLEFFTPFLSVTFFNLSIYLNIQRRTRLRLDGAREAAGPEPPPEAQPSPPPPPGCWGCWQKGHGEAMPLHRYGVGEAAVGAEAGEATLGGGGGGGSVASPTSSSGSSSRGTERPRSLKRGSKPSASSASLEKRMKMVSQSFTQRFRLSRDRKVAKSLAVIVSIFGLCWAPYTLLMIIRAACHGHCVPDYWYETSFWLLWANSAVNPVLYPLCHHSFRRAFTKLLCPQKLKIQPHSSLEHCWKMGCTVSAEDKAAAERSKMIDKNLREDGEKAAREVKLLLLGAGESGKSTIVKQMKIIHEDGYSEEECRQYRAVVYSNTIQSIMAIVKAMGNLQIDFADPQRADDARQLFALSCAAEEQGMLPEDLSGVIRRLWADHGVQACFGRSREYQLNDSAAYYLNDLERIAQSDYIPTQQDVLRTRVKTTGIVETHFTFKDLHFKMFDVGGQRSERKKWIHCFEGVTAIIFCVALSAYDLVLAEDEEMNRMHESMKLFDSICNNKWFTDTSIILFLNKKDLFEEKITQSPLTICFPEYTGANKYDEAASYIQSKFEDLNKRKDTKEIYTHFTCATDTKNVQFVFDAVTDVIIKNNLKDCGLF

Inhibition at 4 µM, ≥ 90%:
COc1cc(C(=O)N2CCc3cnc(N4CCN(C5CCC5)CC4)nc3CC2)nc2ccccc12 [Compound 490, 2-(4-cyclobutylpiperazin-1-yl)-7-[(4-methoxyquinolin-2-yl)carbonyl]-6,7,8,9-tetrahydro-5H-pyrimido[4,5-d]azepine]
O=C(c1cc(Cl)nc(Cl)c1)N1CCc2cnc(N3CCN(C4CCC4)CC3)nc2CC1 [Compound 491, 2-(4-cyclobutylpiperazin-1-yl)-7-(2,6-dichloroisonicotinoyl)-6,7,8,9-tetrahydro-5H-pyrimido[4,5-d]azepine]
O=C(/C=C/c1cccc(F)c1)N1CCc2cnc(N3CCN(C4CCC4)CC3)nc2CC1 [Compound 553, 2-(4-cyclobutylpiperazin-1-yl)-7-[(2E)-3-(3-fluorophenyl)prop-2-enoyl]-6,7,8,9-tetrahydro-5H-pyrimido[4,5-d]azepine]
Cc1cccc(C(=O)N2CCc3cnc(N4CCN(C5CCC5)CC4)nc3CC2)c1C [Compound 403, 2-(4-cyclobutylpiperazin-1-yl)-7-(2,3-dimethylbenzoyl)-6,7,8,9-tetrahydro-5H-pyrimido[4,5-d]azepine]
COc1ccc(Cl)c(OC)c1C(=O)N1CCc2cnc(N3CCN(C4CCC4)CC3)nc2CC1 [Compound 426, 7-(3-chloro-2,6-dimethoxybenzoyl)-2-(4-cyclobutylpiperazin-1-yl)-6,7,8,9-tetrahydro-5H-pyrimido[4,5-d]azepine]
O=C(c1csc(-c2ccncc2)n1)N1CCc2cnc(N3CCN(C4CCC4)CC3)nc2CC1 [Compound 530, 2-(4-cyclobutylpiperazin-1-yl)-7-[(2-pyridin-4-yl-1,3-thiazol-4-yl)carbonyl]-6,7,8,9-tetrahydro-5H-pyrimido[4,5-d]azepine]
CCn1c(C(=O)N2CCc3cnc(N4CCN(C5CCC5)CC4)nc3CC2)cc2ccccc21 [Compound 462, 2-(4-cyclobutylpiperazin-1-yl)-7-[(1-ethyl-1H-indol-2-yl)carbonyl]-6,7,8,9-tetrahydro-5H-pyrimido[4,5-d]azepine]
COc1ncccc1C(=O)N1CCc2cnc(N3CCN(C4CCC4)CC3)nc2CC1 [Compound 498, 2-(4-cyclobutylpiperazin-1-yl)-7-[(2-methoxypyridin-3-yl)carbonyl]-6,7,8,9-tetrahydro-5H-pyrimido[4,5-d]azepine]
Cc1cccc(C(=O)N2CCc3cnc(N4CCN(C5CCC5)CC4)nc3CC2)c1F [Compound 388, 2-(4-cyclobutylpiperazin-1-yl)-7-(2-fluoro-3-methylbenzoyl)-6,7,8,9-tetrahydro-5H-pyrimido[4,5-d]azepine]
COc1c(Cl)cc(Cl)c(OC)c1C(=O)N1CCc2cnc(N3CCN(C4CCC4)CC3)nc2CC1 [Compound 427, 2-(4-cyclobutylpiperazin-1-yl)-7-(3,5-dichloro-2,6-dimethoxybenzoyl)-6,7,8,9-tetrahydro-5H-pyrimido[4,5-d]azepine]
O=C(/C=C/c1ccc(Cl)c(Cl)c1)N1CCc2cnc(N3CCN(C4CCC4)CC3)nc2CC1 [Compound 551, 2-(4-cyclobutylpiperazin-1-yl)-7-[(2E)-3-(3,4-dichlorophenyl)prop-2-enoyl]-6,7,8,9-tetrahydro-5H-pyrimido[4,5-d]azepine]
O=C(c1c(F)cccc1Cl)N1CCc2cnc(N3CCN(C4CCC4)CC3)nc2CC1 [Compound 433, 7-(2-chloro-6-fluorobenzoyl)-2-(4-cyclobutylpiperazin-1-yl)-6,7,8,9-tetrahydro-5H-pyrimido[4,5-d]azepine]

Same assay, conditions: 1 h; assay of Example 8; symbol "!" in column headed Ki; read-out: percent inhibition of agonist-induced GTP-gammaS binding to H3

Inhibition at 4 µM, ≥ 90%:
O=C(COc1ccc(Cl)c(Cl)c1)N1CCc2cnc(N3CCN(C4CCC4)CC3)nc2CC1 [Compound 332, 2-(4-cyclobutylpiperazin-1-yl)-7-[(3,4-dichlorophenoxy)acetyl]-6,7,8,9-tetrahydro-5H-pyrimido[4,5-d]azepine]
Cc1ccccc1C(=O)N1CCc2cnc(N3CCN(C4CCC4)CC3)nc2CC1 [Compound 189, 2-(4-cyclobutylpiperazin-1-yl)-7-(2-methylbenzoyl)-6,7,8,9-tetrahydro-5H-pyrimido[4,5-d]azepine]
Cc1ccccc1OCC(=O)N1CCc2cnc(N3CCN(C4CCC4)CC3)nc2CC1 [Compound 321, 2-(4-cyclobutylpiperazin-1-yl)-7-[(2-methylphenoxy)acetyl]-6,7,8,9-tetrahydro-5H-pyrimido[4,5-d]azepine]
O=C(Cc1ccc2c(c1)OCO2)N1CCc2cnc(N3CCN(C4CCC4)CC3)nc2CC1 [Compound 277, 7-(1,3-benzodioxol-5-ylacetyl)-2-(4-cyclobutylpiperazin-1-yl)-6,7,8,9-tetrahydro-5H-pyrimido[4,5-d]azepine]
COCCOCC(=O)N1CCc2cnc(N3CCN(C4CCC4)CC3)nc2CC1 [Compound 228, 2-(4-cyclobutylpiperazin-1-yl)-7-[(2-methoxyethoxy)acetyl]-6,7,8,9-tetrahydro-5H-pyrimido[4,5-d]azepine]
COc1cccc(CN2CCc3cnc(N4CCN(C5CCC5)CC4)nc3CC2)c1OC [Compound 260, 2-(4-cyclobutylpiperazin-1-yl)-7-(2,3-dimethoxybenzyl)-6,7,8,9-tetrahydro-5H-pyrimido[4,5-d]azepine]
COc1ccc(C(=O)N2CCc3cnc(N4CCN(C5CCC5)CC4)nc3CC2)cc1Cl [Compound 226, 7-(3-chloro-4-methoxybenzoyl)-2-(4-cyclobutylpiperazin-1-yl)-6,7,8,9-tetrahydro-5H-pyrimido[4,5-d]azepine]
COc1ccc(C(=O)N2CCc3cnc(N4CCN(C5CCC5)CC4)nc3CC2)cc1OC1CCCC1 [Compound 376, 2-(4-cyclobutylpiperazin-1-yl)-7-[3-(cyclopentyloxy)-4-methoxybenzoyl]-6,7,8,9-tetrahydro-5H-pyrimido[4,5-d]azepine]
CC(C)C(=O)N1CCc2cnc(N3CCN(C4CCC4)CC3)nc2CC1 [Compound 222, 2-(4-cyclobutylpiperazin-1-yl)-7-isobutyryl-6,7,8,9-tetrahydro-5H-pyrimido[4,5-d]azepine]
O=C(C1CCCCC1)N1CCc2cnc(N3CCN(C4CCC4)CC3)nc2CC1 [Compound 218, 2-(4-cyclobutylpiperazin-1-yl)-7-(cyclohexylcarbonyl)-6,7,8,9-tetrahydro-5H-pyrimido[4,5-d]azepine]
COc1ccccc1CN1CCc2cnc(N3CCN(C4CCC4)CC3)nc2CC1 [Compound 242, 2-(4-cyclobutylpiperazin-1-yl)-7-(2-methoxybenzyl)-6,7,8,9-tetrahydro-5H-pyrimido[4,5-d]azepine]
CC(C)c1ccc(CN2CCc3cnc(N4CCN(C5CCC5)CC4)nc3CC2)cc1 [Compound 244, 2-(4-cyclobutylpiperazin-1-yl)-7-(4-isopropylbenzyl)-6,7,8,9-tetrahydro-5H-pyrimido[4,5-d]azepine]
Cc1ccc(C)c(C(=O)N2CCc3cnc(N4CCN(C5CCC5)CC4)nc3CC2)c1 [Compound 227, 2-(4-cyclobutylpiperazin-1-yl)-7-(2,5-dimethylbenzoyl)-6,7,8,9-tetrahydro-5H-pyrimido[4,5-d]azepine]

Same assay, conditions: symbol ! in Ki; test compound 4 μM, 1 μM histamine; read-out: percent inhibition of agonist-induced GTP-gammaS binding to H3

Inhibition at 4 µM, ≥ 90%:
c1ccc2nc(CN3CCc4nc(N5CCN(C6CCC6)CC5)ncc4C3)ccc2c1 [Compound 639, 2-(4-cyclobutylpiperazin-1-yl)-6-(quinolin-2-ylmethyl)-5,6,7,8-tetrahydropyrido[4,3-d]pyrimidine]
CCCCCN1CCc2c(ncnc2N2CCN(C3CCC3)CC2)C1 [Compound 84, 4-(4-cyclobutylpiperazin-1-yl)-7-pentyl-5,6,7,8-tetrahydropyrido[3,4-d]pyrimidine]
FC(F)(F)c1ccc(N2CCc3c(ncnc3N3CCN(C4CCC4)CC3)C2)nc1 [Compound 138, 4-(4-cyclobutylpiperazin-1-yl)-7-[5-(trifluoromethyl)pyridin-2-yl]-5,6,7,8-tetrahydropyrido[3,4-d]pyrimidine]
CCCCN1CCc2c(ncnc2N2CCN(C3CCC3)CC2)C1 [Compound 83, 7-butyl-4-(4-cyclobutylpiperazin-1-yl)-5,6,7,8-tetrahydropyrido[3,4-d]pyrimidine]
CC(c1ccccc1)N1CCc2c(ncnc2N2CCN(C3CCC3)CC2)C1 (stereo not shown) [Compound 101, 4-(4-cyclobutylpiperazin-1-yl)-7-(1-phenylethyl)-5,6,7,8-tetrahydropyrido[3,4-d]pyrimidine]
CC(c1ccc(N2CCCC2)cc1)N1CCc2c(ncnc2N2CCN(C3CCC3)CC2)C1 (stereo not shown) [Compound 137, 4-(4-cyclobutylpiperazin-1-yl)-7-[1-(4-pyrrolidin-1-ylphenyl)ethyl]-5,6,7,8-tetrahydropyrido[3,4-d]pyrimidine]
COc1ccc(C(=O)N2CCc3c(ncnc3N3CCN(C4CCC4)CC3)C2)cc1Cl [Compound 63, 7-(3-chloro-4-methoxybenzoyl)-4-(4-cyclobutylpiperazin-1-yl)-5,6,7,8-tetrahydropyrido[3,4-d]pyrimidine]
Fc1ccccc1CN1CCc2ncnc(N3CCN(C4CCC4)CC3)c2CC1 [Compound 145, 4-(4-cyclobutylpiperazin-1-yl)-7-(2-fluorobenzyl)-6,7,8,9-tetrahydro-5H-pyrimido[4,5-d]azepine]
CCCC(C)CN1CCc2ncnc(N3CCN(C4CCC4)CC3)c2CC1 (stereo not shown) [Compound 170, 4-(4-cyclobutylpiperazin-1-yl)-7-(2-methylpentyl)-6,7,8,9-tetrahydro-5H-pyrimido[4,5-d]azepine]
